{
  "source": "patent US20240269293A1",
  "about": "“PROTEIN-MACROMOLECULE CONJUGATES AND METHODS OF USE THEREOF” (BEIJING XUANYI PHARMASCIENCES CO., LTD., priority 2021, published 2024)",
  "key": {"CTLL-2 cells": {"system": "CTLL-2 cells", "experiment": "CTLL-2 cell proliferation assay", "format": "cell-based, mouse", "experimental": "CTLL-2 cells (mouse cytotoxic T lymphocyte cell line) were maintained in complete RPMI 1640 medium supplemented with 10% fetal bovine serum, and 10% IL-2 culture supplement (T-STIM™ with ConA (concanavalin-A)) at 37° C. under a 5% CO2 atmosphere. The cells were cultured in suspension until they reach a cell density of 2-3×10^5 cells/ml before splitting.\nFor the activity assay, 3-4 days after the last split, the cells were washed three times in Dulbecco's phosphate buffered saline. The cells were then re-suspended in supplemented media without T-STIM™ at a cell density of ˜5×10^5 cells/mL, and plated in 96-well white walled clear bottom microplates at 90 μl/well. Experiments were also conducted using supplemented media (without T-STIM™) adjusted to pH 6.7-7, in order to minimize the release of conjugates during the course of incubation. Then, 10 μl of 10× concentrations of test compound, diluted in supplemented media without T-STIM™, was added. The cells were incubated at 37° C. in a 5% CO2 atmosphere for 48 hours.\nThe activity of both released IL-2 and unreleased conjugates were tested. The test compounds were stored under acidic condition (10 mM, sodium acetate buffer, pH 4) to stabilize conjugation. To test the activity of conjugates, the sample was diluted from the storage buffer into supplemented media ˜ one hour prior to the assay. […]"}, "CD8+ T cells": {"system": "CD8+ T cells", "experiment": "pSTAT5 signaling in human LRS-derived PBMC, CD8+ T cells (flow cytometry)", "format": "cell-based", "conditions": "for pSTAT5 EC50, CD8+ T cells: 45 minute incubation", "experimental": "(§1) To determine how test compounds affect activation of primary immune cell subpopulations, concentration-response profiling of lymphocyte activation in human LRS-derived peripheral blood mononuclear cell (PBMC) samples were performed using multi-color flow cytometry.\n(§2) An LRS was acquired day of draw and PBMC was extracted using a ficoll density gradient protocol. PBMC was resuspended in RPMI supplemented with 10% Fetal Bovine Serum and 1% Pen-Strep Glutamine. PBMC was incubated at 37° C. for 30 minutes prior to stimulation.\n(§3) A 12-point dose curve with 5-fold dilutions was created for all compounds. Top dose was 30 ug mL. Dose curves were diluted in PBS w/0.1% BSA and added as 10× stocks. After a 45 minute incubation, samples were fixed and stained with antibodies to detect the phosphorylated form of the transcription factor STAT5 (pTATA5), and a panel of surface markers to follow pSTAT5 formation in specific T Cell and natural killer (NK) cell subpopulation.\n(§4) Samples were stained with the following pre-perm panel: CD3, CD25, CD8, CD56, CD16, CD4, Dump (CD14), Dump (CD19), and CD127. Stains were incubated for 30 minutes then washed out. Streptavidin BV421 (Biolegend cat #405225) was then added and incubated for 20 minutes. Streptavidin was washed out and samples were MeOH permed and stained with the following post-perm panel: FOXP3. STAT5, Dump (CD15). Stains were incubated for 60 minutes then washed out and analyzed by flow cytometry.\n(§5) Flow cytometry data were analyzed for activation of different T and NK cell subsets in concentration-response mode, reading pSTAT5 accumulation after treatment with test compounds. The median fluorescence intensity for pSTAT5 was used to create the dose curves. EC50 values for NK cells, Treg cells, CD8+ T cells were calculated from the concentration-response curves."}, "NK cells": {"system": "NK cells", "experiment": "pSTAT5 signaling in human LRS-derived PBMC, NK cells (flow cytometry)", "format": "cell-based", "conditions": "45 minute incubation", "experimental": "as §1, §2, §3, §4, §5"}, "Treg cells": {"system": "Treg cells", "experiment": "pSTAT5 signaling in human LRS-derived PBMC, Treg cells (flow cytometry)", "format": "cell-based", "conditions": "45 minute incubation", "experimental": "as §1, §2, §3, §4, §5"}, "[1]": {"system": "CT26 murine colon carcinoma", "format": "in vivo", "method": "5×10^5 CT26 cells in 0.1 ml of PBS were implanted subcutaneously for each 7-10 weeks old syngeneic female BALB/c mouse in the right front flank region. Tumors were allowed to grow to palpable size, i.e., 80-110 cu mm before randomization and assigning groups (n=8) as designed. The mice were administered test compounds i.e., rIL-2, rIL-2-polymer conjugates of vehicle at different dose concentrations and dose regimes as indicated in Tables 6-8. The body weights and tumor volumes were measured three times per week. Mice that have been tumor free for more than 30 days were re-challenged in the left front flank with CT26 tumor cells (5×10^5) in 0.1 mal of PBS.\nTumor growth inhibition following the administration of rIL-2 and rIL-2-polymer conjugates at different administration schemes were provided in FIGS. 5A-7B. The tumor growth inhibition (TGI) for different treatment groups, complete response (CR) rate, toxicity and rechallenge results were shown in Tables 9-11. Tumor Growth Inhibition; TGI %=(1−ΔT/ΔC)×100; Ti and Ci as the mean tumor volumes of the treatment and vehicle groups on the measurement day; T0 and C0 as the mean tumor volumes of the treatment and vehicle groups on Day 0."}, "[2]": {"system": "MC38 murine colon carcinoma", "experiment": "Subcutaneous MC38 murine colon carcinoma syngeneic model", "format": "in vivo, C57BL/6 mouse", "conditions": "2 mg/kg IP b.i.d. × 5, 2 cycles", "method": "1×10^6 MC38 cells in 0.1 ml of PBS were implanted subcutaneously for each 7-10 weeks old syngeneic female C57BL/6 mouse in the right front flank region. Tumors were allowed to grow to palpable size, i.e., 80-100 cu mm before randomization and assigning groups (n=3) as designed. The mice were administered test compounds i.e., IL-2, rIL-2-polymer conjugates of vehicle at different dose concentrations and dose regimes as indicated in Table 12. The body weights and tumor volumes were measured three times per week.\nTumor growth inhibition following the administration of rIL-2 and rIL-2-polymer conjugates at different administration schemes were provided in FIG. 8. The tumor growth inhibition (TGI) for different treatment groups, complete response (CR) rate, and toxicity were shown in Table 13. Tumor Growth Inhibition; TGI %=(1−ΔT/ΔC)×100; Ti and Ci as the mean tumor volumes of the treatment and vehicle groups on the measurement day; T0 and C0 as the mean tumor volumes of the treatment and vehicle groups on Day 0."}, "[3]": {"system": "metastatic melanoma and renal cell carcinoma", "conditions": "high-dose regimen administered every eight hours; cited from earlier work"}, "[4]": {"conditions": "Table 9, 2 mg/kg IP b.i.d. × 5, 2 cycles"}, "[5]": {"conditions": "Table 11, 2 mg/kg IP b.i.d. × 5, 2 cycles"}},
  "note": "Read-outs that look alike come from different tables or passages of the source.",
  "data": [
    {"substance": "Example 24: recombinant IL-2 of SEQ ID NO:1 expressed in E. coli, used as control", "values": [
      {"measurement": "EC50", "setting": "CTLL-2 cells; Table 3A, 48 hour incubation, CCK8", "value": 1.03, "unit": "pM"},
      {"measurement": "EC50, CTLL-2 cell proliferation", "setting": "CTLL-2 cells; Table 3B, unreleased conjugate (rIL-2 control as such)", "value": 0.78, "unit": "ng/mL"},
      {"measurement": "CD8/Treg ratio (pSTAT5 EC50)", "setting": "CD8+ T cells; Run 1", "value": 928},
      {"measurement": "pSTAT5 EC50, CD8+ T cells", "setting": "CD8+ T cells; Run 1", "value": 37.10, "unit": "ng/mL"},
      {"measurement": "CD8/Treg ratio (pSTAT5 EC50)", "setting": "CD8+ T cells; Run 2", "value": 302},
      {"measurement": "pSTAT5 EC50, CD8+ T cells", "setting": "CD8+ T cells; Run 2", "value": 78.50, "unit": "ng/mL"},
      {"measurement": "CD8/Treg ratio (pSTAT5 EC50)", "setting": "CD8+ T cells; Run 3", "value": 1874},
      {"measurement": "pSTAT5 EC50, CD8+ T cells", "setting": "CD8+ T cells; Run 3", "value": 37.48, "unit": "ng/mL"},
      {"measurement": "pSTAT5 EC50, NK cells", "setting": "NK cells; Run 1", "value": 9.34, "unit": "ng/mL"},
      {"measurement": "pSTAT5 EC50, NK cells", "setting": "NK cells; Run 2", "value": 22.02, "unit": "ng/mL"},
      {"measurement": "pSTAT5 EC50, NK cells", "setting": "NK cells; Run 3", "value": 4.01, "unit": "ng/mL"},
      {"measurement": "pSTAT5 EC50, Treg cells", "setting": "Treg cells; Run 1", "value": 0.04, "unit": "ng/mL"},
      {"measurement": "pSTAT5 EC50, Treg cells", "setting": "Treg cells; Run 2", "value": 0.26, "unit": "ng/mL"},
      {"measurement": "pSTAT5 EC50, Treg cells", "setting": "Treg cells; Run 3", "value": 0.02, "unit": "ng/mL"},
      {"measurement": "TGI (day 19)", "setting": "[1]; Table 9 (FIGS. 5A-5B), 2 mg/kg IP b.i.d. × 5, 2 cycles", "value": 61.76, "unit": "%"},
      {"measurement": "CR (tumor free mice/mice treated)", "setting": "[1]; [4]", "value": "1/8"},
      {"measurement": "Re-challenge (final tumor free mice/re-challenged mice)", "setting": "[1]; [4]", "value": "1/1"},
      {"measurement": "TGI (day 3)", "setting": "[1]; Table 10 (FIGS. 6A-6B), 3 mg/kg (first cycle) IP, 2 mg/kg (second cycle) IV, b.i.d. × 5, 2 cycles", "value": "95.71% (day 3)"},
      {"measurement": "CR (tumor free mice/mice treated)", "setting": "[1]; Table 10, 3, 2 mg/kg b.i.d. × 5, 2 cycles", "value": "0/8"},
      {"measurement": "TGI (day 17)", "setting": "[1]; Table 11 (FIGS. 7A-7B), 2 mg/kg IP b.i.d. × 5, 2 cycles", "value": 102.41, "unit": "%"},
      {"measurement": "CR (tumor free mice/mice treated)", "setting": "[1]; [5]", "value": "1/8"},
      {"measurement": "Re-challenge (final tumor free mice/re-challenged mice)", "setting": "[1]; [5]", "value": "1/1"},
      {"measurement": "TGI (day 15)", "setting": "[2]; Table 13 (FIG. 8)", "value": 100.75, "unit": "%"},
      {"measurement": "CR (day 38) (tumor free mice/mice treated)", "setting": "[2]; Table 13", "value": "1/8"}
    ]},
    {"substance": "aldesleukin", "values": [
      {"measurement": "Durable responses", "setting": "[3]", "value": "up to 25%"}
    ]}
  ]
}
